Assays:
NIH-3T3 cells = assay: In vitro cytotoxicity, methylene blue assay, I-CT-ABPs; type: cell-based, mouse; conditions: NIH-3T3, 10 μM, 48 hours
Experimental: In vitro Cytotoxicity Assays. Methylene Blue assays were performed in 96-well plates; NIH-3T3 cells (5×10^3 cells/well) were seeded in a 96-well plate one day before treatment. Cells were treated with indicated concentrations of targeted IABNs and non-targeted nanomaterials that were pre-dissolved in 0.1% DMSO in the culture medium. Cells were incubated for 24 h and 48 h and cells were fixed with 2.5% glutaraldehyde incubation for 10 min. Cells were washed with water and borate buffer (0.1M, pH=8.5), Cell number was determined by staining cells with the addition of 100 μl per well of 1% Methylene Blue in borate buffer, followed by incubation at room temperature for at least 1 hour. The stain was aspirated and the plates rinsed by immersion in water, followed by immersion in deionized water. The plates were air-dried and then the stain was released from cells by the addition of 200 μl/well 0.1 N HCl solutions. After 1 hour incubation at 37° C., the absorbance of each […] at 620 nm was determined on a Cytation 3 microplate reader.
Cytotoxicity study of the I-CT-ABPs, the toxic response to the systematically varied physico-chemical properties of successive PAMAM dendrimers. In vitro cytotoxicity of I-CT-ABPs to NIH-3T3 cell lines was investigated. Viability assay was performed for assessment of the cytotoxicity of each I-CT-ABP to the NIH-3T3 cell lines using the methylene blue method.

[1] = target: T1, Recombinant human Cathepsin L (Homo sapiens, UniProt P07711); assay: Recombinant cathepsin labeling, competition assay, iodinated probes; type: biochemical; conditions: probe 2 hour, then GB123 30 minutes
T1 construct: made in house
T1 sequence (P07711 114-333): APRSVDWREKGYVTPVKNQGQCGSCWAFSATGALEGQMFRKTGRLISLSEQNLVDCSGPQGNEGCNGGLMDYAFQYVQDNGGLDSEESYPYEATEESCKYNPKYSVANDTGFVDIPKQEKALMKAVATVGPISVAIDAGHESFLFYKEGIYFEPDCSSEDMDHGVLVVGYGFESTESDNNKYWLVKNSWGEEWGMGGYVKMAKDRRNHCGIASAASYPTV
Experimental: (§1) Recombinant cathepsin labeling, competition assay: Recombinant human Cathepsin L (0.5 μg), Cathepsin B (0.5 μg) were incubated the indicated concentrations of targeted or control iodinated activity based probes (CT-ABP) in reaction buffer (50 mM acetate, 2 mM DTT and 5 mM MgCl2, pH 5.5) for 120 minutes at 37° C. After probe incubation, residual cathepsin activity was labeled with GB123 for 30 minutes. The reaction was stopped by addition of sample buffer ×4 (40% glycerol, 0.2 M Tris/HCl, pH 6.8, 20% beta-mercaptoethanol, 12% SDS and 0.4 mg/ml bromophenol blue). Samples were then boiled, separated on a 12.5% SDS gel and scanned for fluorescence by a Typhoon scanner FLA 9500 at excitation/emission wavelengths of 645/670 nm.
(§2) The biochemical evaluation of the new probes started with evaluation for their ability to bind recombinant human cathepsins B or Cathepsin L. Recombinant human cathepsins B was incubated with increasing concentrations of the probes for 2 hour. Residual activity was detected by a fluorescently labeled cathepsin ABP GB 123 that was added to samples for 30 minutes at r.t. […] Next, residual cathepsins activity was labeled by GB123 1 μM during 2 hours. Cell lysates were separated on SDS-PAGE followed by scanning the gel for fluorescence to visualize labeling of residual cathepsins activity by GB123 (FIGS. 11C and 11F).
(§3) Recombinant human cathepsins B was incubated with increasing concentrations of the probes for 2 hour. Residual activity was detected by a fluorescently labeled cathepsin ABP that was added to samples for 30 minutes at r.t. The free probe was separated from the enzyme-probe complex by SDS PAGE, the detection of the probe-enzyme complex was done by a fluorescent scanning of the gel at Cy5 fluorescence, FIG. 12. […] To assure that the binding is dependent on protease activity, a control were performed HG87, HG94 and HG97 lacking the reactive moiety. […] Evaluation of I-CT-ABPs in intact cells. […] Next, residual cathepsins activity was labeled by GB123 1 μM during 2 hours. Cell lysates were separated on SDS-PAGE followed by scanning the gel for fluorescence at: 645/670 nm to visualize labeling of residual cathepsins activity by GB123 (FIG. 12E). […] Recombinant human cathepsins B was incubated with increasing concentrations of the Cy5 labelled probes for 2 hour. The free probe was separated from the enzyme-probe complex by SDS PAGE, the detection of the probe-enzyme complex was done by a fluorescent scanning of the gel at Cy5 fluorescence. […] The binding of the all the Cy5 labelled probes occur in an activity-dependent manner. Direct labeling in intact cells. The assay was carried out by incubation of NIH-3T3 cells with Cy5 labelled iodine tagged probes for 24 hours. Cell lysates were separated on SDS-PAGE followed by scanning the gel for fluorescence at: 645/670 nm to visualize labeling of residual cathepsins activity by GB123. […] For the PEGylated I-CT-ABP HG93 and HG32 also observed that recombinant cathepsin activity and cell permeability, it's difficult to quantify the selective inhibition due to enhanced permeation and retention (EPR) effect.

[2] = target: T2, Recombinant human Cathepsin B (Homo sapiens, UniProt P07858); assay: as above; type: biochemical; conditions: probe 2 hour, then GB123 30 minutes
T2 construct: made in house
Experimental: as §1, §2, §3

Row | binding to recombinant cathepsin L, competitive assay [1] | binding to recombinant cathepsin B, competitive assay [2] | Substance | toxicity (viability assay) (NIH-3T3 cells)
1 | no inhibition was detected | no inhibition was detected | (IPA)16(NH2)16-G3 [HG87] | slight toxicity
2 | no inhibition was detected | no inhibition was detected | (IPA)16(PEG-4)16-G3 [HG94] | 
3 | no inhibition was detected | no inhibition was detected | (IPA)16(PEG-750)16-G3 [HG97] | 
